From patent US9687548B2, “Photoactivatable caged tamoxifen and tamoxifen derivative molecules and methods of use thereof” (Dana-Farber Cancer Institute, Inc., priority 2012, dated 2017)
Entries after “also recorded” stand apart in the source; their conditions may differ.

Legend:
[1] = target: T1, CreER fusion protein (Homo sapiens, UniProt P03372, G400V/L544A/M543A); assay: X-gal (lacZ) reporter in MEFs from Rosa26CreERT2; R26R (Lox-STOP-Lox-lacZ) embryos; type: cell-based, mouse; conditions: with vs without 365 nm UV light exposure; X-gal stained MEFs
T1 construct: host or cells: cells and tissues (MEFs, mammary epithelial acini, skin, mammary gland) of heterozygous Rosa26CreER^T2 knock-in reporter mice; the other entry of the earlier key: cre (P06956, Recombinase cre)
T1 sequence (P03372 with tags, fused parts or gaps G400V/M543A/L544A): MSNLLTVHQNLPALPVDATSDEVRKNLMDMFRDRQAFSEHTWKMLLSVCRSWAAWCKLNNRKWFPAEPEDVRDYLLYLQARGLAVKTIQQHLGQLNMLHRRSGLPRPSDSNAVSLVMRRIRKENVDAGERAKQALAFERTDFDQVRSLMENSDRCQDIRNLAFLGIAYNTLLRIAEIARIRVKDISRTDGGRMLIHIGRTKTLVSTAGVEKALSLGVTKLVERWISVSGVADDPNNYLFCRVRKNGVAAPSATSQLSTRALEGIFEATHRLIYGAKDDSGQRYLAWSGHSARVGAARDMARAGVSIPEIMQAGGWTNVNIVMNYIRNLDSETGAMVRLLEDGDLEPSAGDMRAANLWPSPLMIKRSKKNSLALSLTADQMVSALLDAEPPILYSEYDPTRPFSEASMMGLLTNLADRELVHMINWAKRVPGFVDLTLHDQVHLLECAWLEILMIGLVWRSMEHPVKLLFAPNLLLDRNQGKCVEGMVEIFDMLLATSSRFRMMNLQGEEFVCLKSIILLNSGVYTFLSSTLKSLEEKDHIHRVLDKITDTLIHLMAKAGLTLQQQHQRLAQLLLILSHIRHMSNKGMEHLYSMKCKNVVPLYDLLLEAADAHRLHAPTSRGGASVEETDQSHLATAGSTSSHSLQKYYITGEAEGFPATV
Procedure: (§1) Mouse embryonic fibroblasts (MEFs) were isolated as described (Sharpless et al., Mol. Cell 8:1187-1196, 2001) and grown in DMEM with 10% FBS. To shed UV light on the cells, the cells were first grown in 60-mm dish overnight to become nearly confluent. The next day, the medium was replaced with medium containing caged 4-OHC at 5 μM and incubated for 30 minutes. The cells were washed twice quickly with warm PBS and covered with fresh medium. The dish was placed on the UV emission surface of a handheld 6 W long-wavelength UV lamp (UVP, LLC), and UV light was kept on for a designated period of time. The cells were put back into the incubator to culture for 48-72 h before live imaging or flow cytometric analysis.
Mouse embryonic fibroblasts (MEFs) isolated from the Rosa26CreER^T2; mT/mG mice in cell culture were used to test the caged 4-OHC activity. The Rosa26CreER^T2; mT/mG MEFs were treated with either 4-OHC or caged 4-OHC and illuminated at 365 nm. […] To further test the caged 4-OHC, another reporter mouse was generated (Rosa26CreER^T2; R26R mice). The Rosa26CreER^T2; R26R mice were generated by crossing homozygous Rosa26CreER^T2 mice with homozygous Rosa26-loxP-STOP-loxP-lacZ mice (experimental system shown in FIG. 9).
An additional set of experiments were performed to test the ability of Caged Molecules I, II, and III (shown in Schematic #5) to induce nuclear translocation of a ER fusion protein in a cell following light exposure. Mouse embryonic fibroblasts from Rosa26-CreER^T2; Lox-STOP-Lox-lacZ embryos were treated with 5 μM 4-OHC (positive control; lower left panel), treat Caged Molecule I (“Compound I”) with or without 365 nm UV light exposure (top right and top center panels, respectively), Caged Molecule II (“Compound II”) with or without 365 nm UV light exposure (middle right and middle center panels, respectively), or Caged Molecule III (“Compound III”) with or without 365 UV light exposure (bottom right and […] panels, respectively).

[2] = Stability of caged molecule in the absence of light; type: physicochemical; conditions: in the dark / prior to illumination
[3] = target: T2, CreER (Homo sapiens, UniProt P03372, G400V/L544A/M543A); assay: In vivo photoactivation in mammary gland of female Rosa26CreERT2; mT/mG mice (ex vivo IV-110 imaging); design: species or system mouse
T2 construct: host or cells: cells and tissues (MEFs, mammary epithelial acini, skin, mammary gland) of heterozygous Rosa26CreER^T2 knock-in reporter mice; the other entry of the earlier key: cre (P06956, Recombinase cre)
T2 sequence (P03372 with tags, fused parts or gaps G400V/M543A/L544A): T1 sequence (P03372 with tags, fused parts or gaps G400V/M543A/L544A)
Procedure: (§2) Female mice of 6-8 weeks old were clean shaven on the dorsal and ventral sides. The caged 4-OHC was dissolved in 20% Solutol for in vivo delivery. The vehicle or 1 mg caged 4-OHC in vehicle was injected intraperitoneally. One hour later, the mice were anesthetized with isoflurane and exposed to UV light from the hand-held 6 W long-wavelength UV lamp (UVP, LLC) for 15 minutes. Alternatively, for mammary tissue illumination, the right inguinal (#4) mammary fat pad was exposed by creating a small skin flap and illumination with UV light for 15 minutes. For enhanced photoconversion, this procedure was repeated four times. On the seventh day, the mice were imaged with Olympus OV-110 epifluorescence imager (Thurber et al., PLoS One 4:e8053, 2009) to detect fluorescent signals emitted from the skin on the dorsal and ventral sides. Alternatively, the left and right mammary glands were dissected and immediately imaged using the intravital laser scanning microscope IV-110 (Kelly et al., PLoS Med. 5:e85, 2008).

[4] = target: T2, CreER; assay: Photoactivated EGFP expression in MEFs from Rosa26CreERT2; mT/mG mice; type: cell-based, mouse; conditions: 5 μM, 365 nm illumination vs no light
Procedure: as §1
A recently developed double-fluorescent Cre reporter mouse, the mT/mG strain (Muzumdar, Genesis 45:593, 2007) was used to design a biological system that can faithfully report on the induced activity of CreER. This mouse model expresses tdTomato prior to and EGFP following Cre-mediated recombination ubiquitously in tissues. […] The photoinduced activity of caged tamoxifen and caged tamoxifen derivative molecules can be assessed by illuminating the cells and tissues from these mice and looking for EGFP-expressed cells (FIG. 1).

[5] = target: T2, CreER; assay: In vivo photoactivation in skin of Rosa26CreERT2; mT/mG mice (OV-110 imaging); design: species or system mouse
Procedure: as §2

[6] = target: T2, CreER; assay: Photoactivated EGFP expression in mammary acinus 3D culture from Rosa26CreERT2; mT/mG mice; type: cell-based, mouse; conditions: 5 μM, 1 min UV lamp or 60× objective DAPI filter
Procedure: Mouse mammary epithelial cells […] were isolated from 6-8 week old female Rosa26CreER^T2; mT/mG mice as previously described (Tiede et al., PLoS One 4:e8035, 2009). Briefly, mammary glands were excised, minced using scalpels, and digested for 1 hour in 300 U/mL type 1A collagenase (Sigma) and 100 U/mL hyaluronidase (Sigma). The cells were then treated with 0.25% trypsin/EDTA, dispase (Invitrogen)/DNase (Sigma), and ACK lysing buffer (Invitrogen) in succession. Between each treatment, cells were rinsed in MEGM (1:1 DMEM:F12 Ham supplemented with […], 500 ng/mL hydrocortisone, 10 ng/mL EGF, 20 ng/mL cholera toxin, 5% bovine calf serum, and 1× penicillin/streptomycin). Afterwards, cells were filtered twice through […] nylon cell strainers and seeded in 35-mm dishes that contained a layer of Growth Factor Reduced Matrigel (BD Biosciences) measuring approximately 1-2 mm thickness. Acini usually formed in 4-8 days. During photoactivation, the acini were incubated with MEGM containing 5 μM caged 4-OHC for 1 hour. The cells were washed twice quickly with warm PBS and covered with fresh medium. The dish was placed on the UV emission surface of a hand-held 6 W long-wavelength UV lamp (UVP, LLC, exposure time: 1 minute) or above the 60× objective of an inverted epifluorescent microscope equipped with a standard DAPI filter set. […]

[7] = UV-Vis and HPLC-MS characterization of the photocleavage of caged 4-OHC; type: physicochemical
Procedure: A 0.25 mM solution of caged 4-OHC in 1:1 (v/v) water:acetonitrile was used for the UV-Vis spectroscopic characterization of the photocleavage reaction. The solution of the caged 4-OHC was placed in a 96-well black clear bottom microplate. The solution was then irradiated at ˜365 nm using a hand-held UV lamp. After light exposure, UV-Vis spectra of the solution was recorded in a TECAN microplate reader. A time course of the photocleavage reaction was monitored by exposing the caged 4-OHC solution to light for different durations, and subsequently recording the UV-Vis spectra of the solution.
A 2.0 mM solution of caged 4-OHC in 1:1 (v/v) water: acetonitrile was used for the HPLC-MS study. The solution of the caged 4-OHC was placed in a glass vial and irradiated at ˜365 nm using a hand-held UV lamp. Aliquots were taken at different time intervals and injected to the HPLC-MS machine for analysis. Prism 5 (GraphPad, La Jolla, Calif.) for Mac was used to plot the data.

[8] = 4-OHC compared with 4-OHT; cited from earlier work

For `CCOc1c(OC)cc([N+](=O)[O-])c(COc2ccc(C(=C3CCCCC3)c3ccc(OCCN(C)C)cc3)cc2)c1[N+](=O)[O-]` [Caged Molecule I], which “nuclear translocation / nuclear transport of the ER fusion protein” value [1] is on record?
Its value is “resulted in an increase in the nuclear transport of the ER fusion protein”.

For `COc1ccc(-c2ccc([N+](=O)[O-])c(C(C)COc3ccc(C(=C4CCCCC4)c4ccc(OCCN(C)C)cc4)cc3)c2)cc1` (stereo not drawn) [Caged Molecule III], which “nuclear translocation / nuclear transport of the ER fusion protein” value [1] is on record?
The value was “resulted in an increase in the nuclear transport of the ER fusion protein”.

With `CCOC(=O)COc1c(OC)cc([N+](=O)[O-])c(COc2ccc(C(=C3CCCCC3)c3ccc(OCCN(C)C)cc3)cc2)c1[N+](=O)[O-]` [Caged Molecule II] as the molecule, how does the “nuclear translocation / nuclear transport of the ER fusion protein” value [1] read?
The value was “resulted in an increase in the nuclear transport of the ER fusion protein”.

With “4-hydrocyclofen conjugated with the photoactivatable 4,5-demethoxy-2-nitrophen methanol (DMNPM) group [DMNPM caged 4-hydroxycyclofen, reference compound]” as the molecule, how does the “breakdown in the absence of light exposure” value [2] read?
The value was “spontaneous breakdown in the absence of appropriate light exposure”.

Which results are given for `COc1cc(C(C)Oc2ccc(C(=C3CCCCC3)c3ccc(OCCN(C)C)cc3)cc2)c([N+](=O)[O-])cc1OC` (stereo not drawn) [caged 4-OHC, 1-(4,5-dimethoxy-2-nitrophenyl) ethanol (DMNPE) caged 4-hydroxycyclofen]?
EGFP induction in illuminated right vs non-illuminated left mammary gland ([3]; intraperitoneal, 365 nm light on right mammary gland, seven days later): the right, but not the left, mammary gland showed strong EGFP induction; also recorded: expressed EGFP; diffusion after uncaging to other organs ([3]; skin and mammary gland data taken together): limited diffusion after uncaging; EGFP expression after photocleavage [4]: induced EGFP expression in a stringent fashion; EGFP signal on illuminated ventral vs non-illuminated dorsal skin ([5]; intraperitoneal, UV illumination only on ventral skin): EGFP signal was observed on the ventral skin but not on the dorsal skin; average increase in fluorescence intensity ([5]; intraperitoneal, ventral skin UV illuminated): 2.5 fold; EGFP expression in response to photoactivation [6]: very tight control of EGFP expression in response to photoactivation; breakdown in the absence of light exposure [2]: did not appear to show any sign of breakdown prior to illumination; conversion to / release of 4-OHC upon UV irradiation ([7]; HPLC-MS, ~365 nm, 2.0 mM in water:acetonitrile 1:1): quantitative, unidirectional conversion to 4-OHC; also recorded: quantitative release of 4-OHC; time to completion of photochemical (photocleavage) reaction ([7]; hand-held 365 nm UV lamp, UV-Vis, water:acetonitrile 1:1): ≤ 10 min

For `CN(C)CCOc1ccc(C(=C2CCCCC2)c2ccc(O)cc2)cc1` [4-OHC, 4-hydroxycyclofen, reference compound], which photostability [8] is on record?
Its photostability is “better photostability”.

And the “EGFP signal at whole mouse level” value ([5]; treated with 4-OHC (uncaged))?
The value was “strong EGFP signal was detected”.
